Data published in patent US5225528A, “Cyclic hexapeptide oxytocin antagonists” (priority 1990, dated 1993).
Where two headings read alike, the source gives them in different places. Numbered stars: 1 amine (or outer) side, 2 acyl side, 3 side chain; on linkers, the order of the positions; unused ones are H or OH. Square brackets hold non-standard residues; d marks the D form. Peptide text beside a SMILES is read from it. * marks the point of attachment. X2 = O=C(OCc1ccccc1)N1CCN([*:1])[C@H](C(=O)[*:2])C1; dPiz(1,6-dehydro) = O=C(O)[C@H]1CCC=NN1; X1 = O=C([C@H]1C=CCCN1[*:1])[*:2]; dNMeF = CN[C@H](Cc1ccccc1)C(=O)O; Pip = O=C(O)[C@@H]1CCCCN1; dPip = O=C(O)[C@H]1CCCCN1; Cbz = O=C(OCc1ccccc1)*

Assays:
uterine OT receptors = biological target: T1, uterine OT receptors (Rattus norvegicus, UniProt P70536); test: [^3 H]OT binding to uterine OT receptors, crude membrane preparation of uteri from DES-treated rats; conditions: for IC50: rat uterus membranes, 1 nM [^3 H]OT, read-out: Receptor Binding Results IC50 (nM) [^3 H]OT
T1 construct: from tissue; host or cells: uterus of DES-treated rats, crude membranes
T1 sequence (P70536 1-388): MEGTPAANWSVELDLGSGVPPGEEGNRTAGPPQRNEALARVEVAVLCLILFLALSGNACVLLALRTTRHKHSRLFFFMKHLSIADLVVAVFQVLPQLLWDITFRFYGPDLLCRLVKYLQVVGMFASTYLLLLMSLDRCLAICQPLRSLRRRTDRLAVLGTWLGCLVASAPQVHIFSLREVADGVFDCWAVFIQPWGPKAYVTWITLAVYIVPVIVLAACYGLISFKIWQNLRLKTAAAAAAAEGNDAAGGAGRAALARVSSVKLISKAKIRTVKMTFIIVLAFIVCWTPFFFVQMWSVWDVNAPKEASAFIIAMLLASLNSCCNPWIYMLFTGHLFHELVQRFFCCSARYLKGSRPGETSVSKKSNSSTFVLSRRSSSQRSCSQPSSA
Protocol: Competition studies were conducted at equilibrium (60 minutes; 22° C.) using 1 nM [^3 H]OT in the following assay buffer: 50 mM Tris-HCl, 5 mM MgCl2, and 0.1% BSA, pH 7.4.

AVP-V2 sites = biological target: T2, AVP-V2 sites (Rattus norvegicus, UniProt Q00788); test: [^3 H]AVP binding to crude membrane preparation of male rat kidney medulla (AVP-V2 sites); conditions: for IC50: read-out: Receptor Binding Results IC50 (nM) [^3 H]-AVP-V2
T2 construct: male rat liver (AVP-V1 sites) or kidney medulla (AVP-V2 sites); from tissue; host or cells: male rat kidney medulla, crude membranes
T2 sequence (Q00788 whole entry): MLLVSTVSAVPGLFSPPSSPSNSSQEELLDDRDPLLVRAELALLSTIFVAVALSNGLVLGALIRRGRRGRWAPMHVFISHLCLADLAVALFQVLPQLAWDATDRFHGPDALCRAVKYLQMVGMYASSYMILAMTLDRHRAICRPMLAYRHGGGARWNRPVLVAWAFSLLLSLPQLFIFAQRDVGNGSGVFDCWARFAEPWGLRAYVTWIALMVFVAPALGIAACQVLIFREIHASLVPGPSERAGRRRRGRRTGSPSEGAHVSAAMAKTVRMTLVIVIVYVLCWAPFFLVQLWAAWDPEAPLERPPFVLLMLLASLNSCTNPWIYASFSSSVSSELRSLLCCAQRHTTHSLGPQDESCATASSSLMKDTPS
Protocol: (§1) Nonspecific binding (5-10% of the total binding) was determined using 10 μM unlabeled AVP, and the binding reaction was terminated by filtration as described above for the [^3 H]OT binding assay.

AVP-V1 sites = biological target: T3, AVP-V1 sites (Rattus norvegicus, UniProt P30560); test: [^3 H]AVP binding to crude membrane preparation of male rat liver (AVP-V1 sites)
T3 construct: crude membrane preparation of male rat liver (AVP-V1 sites); from tissue; host or cells: male rat liver, crude membranes
T3 sequence (P30560 whole entry): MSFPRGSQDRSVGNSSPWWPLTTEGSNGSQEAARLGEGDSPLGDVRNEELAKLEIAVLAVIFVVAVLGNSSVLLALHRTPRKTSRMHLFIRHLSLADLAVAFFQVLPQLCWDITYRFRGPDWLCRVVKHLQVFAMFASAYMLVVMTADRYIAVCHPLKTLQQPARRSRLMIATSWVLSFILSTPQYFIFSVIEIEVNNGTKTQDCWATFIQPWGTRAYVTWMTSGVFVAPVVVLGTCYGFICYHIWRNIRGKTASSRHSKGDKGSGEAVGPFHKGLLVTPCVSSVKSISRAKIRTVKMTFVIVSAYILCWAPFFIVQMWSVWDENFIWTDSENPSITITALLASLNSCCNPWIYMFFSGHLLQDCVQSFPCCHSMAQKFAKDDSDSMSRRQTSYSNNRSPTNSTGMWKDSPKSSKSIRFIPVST
Protocol: as §1

[1] = Receptor Binding Results IC50 (nM) [^3 H]-AVP-V1
[2] = rat kidney medulla membranes, 2 nM [^3 H]AVP

| Compound | IC50 (uterine OT receptors) [nM] | inhibition at 1 µM (AVP-V2 sites; 0.5 h, @ 1,000 (nM), read-out: [^3 H]-AVP-V2: percent inhibition of radioligand at the given concentration) [%] | IC50 (AVP-V1 sites; [1]) [nM] | IC50 (AVP-V2 sites) [nM] | IC50 (AVP-V1 sites; read-out: Receptor Binding Results IC50 (nM) [^3 H]-AVP-V1) [nM] | IC50 (AVP-V2 sites; [2]) [nM] | inhibition at 0.1 µM (uterine OT receptors; 1 h, @ 100 (nM), read-out: [^3 H]OT: percent inhibition of radioligand at the given concentration) [%] |
| --- | --- | --- | --- | --- | --- | --- | --- |
| CC[C@H](C)[C@@H]1NC(=O)[C@@H](Cc2c[nH]c3ccccc23)NC(=O)[C@@H]2CCCN2C(=O)[C@@H](Cc2ccccc2)N(C)C(=O)[C@@H]2CN(C(=O)OCc3ccccc3)CCN2C(=O)[C@H]2CCC=NN2C1=O [Example 168, c-[D-Tryptophanyl-L-isoleucinyl-D-Δ-piperazyl-L-piperazin-2-yl(4-Cbz)-N-Me-D-phenylalanyl-L-prolyl]] (cyclo(I[dPiz(1,6-dehydro)][X2][dNMeF]P[dW])) | 34 | 54 | 10000 | – | – | – | – |
| CC[C@H](C)[C@@H]1NC(=O)[C@@H](Cc2c[nH]c3ccccc23)NC(=O)[C@@H]2CCCN2C(=O)[C@@H](Cc2ccccc2)N(C)C(=O)[C@@H]2CCCCN2C(=O)[C@H]2CCCCN2C1=O [Example 30, Cyclo[D-tryptophanyl-L-isoleucyl-D-pipecolyl-L-pipecolyl-D(N^α methyl)phenylalanyl-L-prolyl]] (cyclo(I[dPip][Pip][dNMeF]P[dW])) | 20 | – | – | 747 | 12000 | – | – |
| CC[C@H](C)[C@@H]1NC(=O)[C@@H](Cc2ccccc2)NC(=O)[C@@H]2CCCN2C(=O)[C@@H](Cc2ccccc2)N(C)C(=O)[C@H]2C=CCCN2C(=O)[C@H]2CCCCN2C1=O [Example 22, Cyclo[D-Phenylalanyl-L-isoleucyl-D-pipecolyl-D-(3,4-Dehydro)-pipecolyl-D-(N^α methyl)phenylalanyl-L-Prolyl]] (cyclo(I[dPip][X1][dNMeF]P[dF])) | 2400 | – | > 10000 | – | – | > 10000 | – |
| CC[C@H](C)[C@@H]1NC(=O)[C@@H](Cc2c[nH]c3ccccc23)NC(=O)[C@@H]2CCCN2C(=O)[C@@H](Cc2c[nH]c3ccccc23)NC(=O)[C@H](CCCCNC(=O)OCc2ccccc2)NC(=O)[C@H]2CCCCN2C1=O [Example 29, Cyclo[D-tryptophanyl-L-isoleucyl-D-pipecolyl-L-(carbobenzloxy)lysyl-D-tryptophanyl-L-prolyl]] (cyclo(I[dPip]K(Cbz)[dW]P[dW])) | – | – | > 10000 | – | – | > 10000 | 32 |
